From US7109354B2, “Thiophene amidines, compositions thereof, and methods of treating complement-mediated diseases and conditions” (3-Dimensional Pharmaceuticals, Inc., priority 2002, dated 2006) come the findings set out here.

Values joined by “and” are separate entries in the source; they are usually repeats but may differ in a detail not shown here. Identical values can stand only once. Counter-ions that a name gives are not always drawn.

The experiment deals with T1, Activated human C1s (Homo sapiens, UniProt P09871).
T1 construct: purchased Calbiochem (La Jolla, Calif.)
T1 sequence (P09871 438-688 limits assumed): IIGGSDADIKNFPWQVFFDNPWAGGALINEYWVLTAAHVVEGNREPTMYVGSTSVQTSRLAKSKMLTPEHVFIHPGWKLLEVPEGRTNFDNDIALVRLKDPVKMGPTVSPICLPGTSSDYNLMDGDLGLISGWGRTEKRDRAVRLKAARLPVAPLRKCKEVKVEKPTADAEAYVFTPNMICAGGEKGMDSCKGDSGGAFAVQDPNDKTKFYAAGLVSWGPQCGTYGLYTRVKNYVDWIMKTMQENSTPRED
T1 sequence (P09871 16-437 partner limits assumed): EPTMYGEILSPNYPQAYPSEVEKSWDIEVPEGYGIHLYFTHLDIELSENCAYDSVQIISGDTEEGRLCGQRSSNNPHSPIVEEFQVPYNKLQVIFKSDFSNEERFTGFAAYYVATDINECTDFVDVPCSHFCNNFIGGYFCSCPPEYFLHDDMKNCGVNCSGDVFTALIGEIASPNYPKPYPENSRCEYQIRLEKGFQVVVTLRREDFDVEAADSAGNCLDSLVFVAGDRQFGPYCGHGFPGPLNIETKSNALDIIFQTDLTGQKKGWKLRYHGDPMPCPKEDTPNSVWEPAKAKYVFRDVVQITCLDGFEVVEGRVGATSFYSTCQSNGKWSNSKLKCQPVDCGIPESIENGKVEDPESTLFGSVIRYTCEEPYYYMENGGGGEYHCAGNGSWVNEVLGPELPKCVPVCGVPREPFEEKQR
As to the kind of experiment: In vitro inhibition of C1s (Ki determination, C1s-catalyzed hydrolysis of Z-Gly-Arg-S-Bzl, DTNB readout). In kind it is biochemical. The note with it: substrate Z-Gly-Arg-S-Bzl 45 μM, DTNB 200 μM, C1s 2.3 nM, pH 7.5, 37° C., absorbance at 405 nm. On the procedure:
Reagents: All buffer salts were obtained from Sigma Chemical Company (St. Louis, Mo.), and were of the highest purity available. DTNB was purchased from Pierce (Rockford, Ill.). Z-Gly-Arg-S-Bzl was purchased from Enzyme Systems Products (Livermore, Calif.). Activated human C1s was purchased from Calbiochem (La Jolla, Calif.).
Test compounds are prepared as a 10 μM solution in DMSO. Dilutions are prepared in DMSO yielding 7 final concentrations encompassing a 700-fold concentration range.
Reactions were initiated by the addition of a 10 μL aliquot of the enzyme, and the absorbance increase at 405 nm is continuously recorded for 15 minutes in a Molecular Devices plate reader. Final DMSO concentration was 4.3%. […] The ratio of the velocity (rate of change in absorbance as a function of time) for a sample containing no test compound is divided by the velocity of a sample containing test compound, and is plotted as a function of test compound concentration. The data are fit to a linear regression, and the value of the slope of the line calculated. The inverse of the slope is the experimentally determined Ki value.
A word on the Ki: it is a measure of affinity in units of concentration, obtained from inhibition or displacement. A lower Ki goes with higher affinity. `CSc1sc(C(=N)N)cc1S(=O)(=O)c1cccc(-c2cc(-c3ccccc3)ccc2O)c1` [Example 1, 4-(4′-Hydroxy-[1,1′;3′,1′]terphenyl-3′-sulfonyl)-5-methylsulfanyl-thiophene-2-carboxamidine trifluoroacetate]: the Ki is 6 to 23 nM.
The result for `CSc1sc(C(=N)N)cc1S(=O)(=O)c1cccc(-c2cccc(-c3ccccc3)c2O)c1` [Example 2] reads 6 to 23 nM.
`CSc1sc(C(=N)N)cc1S(=O)(=O)c1cccc(-c2cccc(C(=O)OC(C)C)c2C)c1` [Example 3, 3′-(5-Carbamimidoyl-2-methylsulfanyl-thiophene-3-sulfonyl)-2-methyl-biphenyl-3-carboxylic acid isopropyl ester trifluoroacetate] gave a Ki of 6 to 23 nM.
The same measure for `CSc1sc(C(=N)N)cc1S(=O)(=O)c1cccc(-c2c(C)cccc2C(=O)O)c1` [Example 4, 3′-(5-Carbamimidoyl-2-methylsulfanyl-thiophene-3-sulfonyl)-6-methyl-biphenyl-2-carboxylic acid trifluoroacetate]: 6 to 23 nM.
Molecule `CSc1sc(C(=N)N)cc1S(=O)(=O)c1cccc(-c2c(C)cccc2CO)c1` [Example 5, 4-(6′-Hydroxymethyl-2′-methyl-biphenyl-3-sulfonyl)-5-methylsulfanyl-thiophene-2-carboxamidine] gave a Ki of 6 to 23 nM.
The result for `CSc1sc(C(=N)N)cc1S(=O)(=O)c1cccc(-c2cccc(C=O)c2C)c1` [Example 6, 4-(3′-formyl-2′-methyl-biphenyl-3-sulfonyl)-5-methylsulfanyl-thiophene-2-carboxamidine trifluoroacetate] reads 6 to 23 nM; that for `CSc1sc(C(=N)N)cc1S(=O)(=O)c1cccc(-c2cc(CO)ccc2C)c1` [Example 7, 4-(5′-Hydroxymethyl-2′-methyl-biphenyl-3-sulfonyl)-5-methylsulfanyl-thiophene-2-carboxamidine trifluoroacetate], 6 to 23 nM.
The same measure for `CSc1sc(C(=N)N)cc1S(=O)(=O)c1cccc(-c2cc(C=O)ccc2C)c1` [Example 8, 4-(5′-Formyl-2′-methyl-biphenyl-3-sulfonyl)-5-methylsulfanyl-thiophene-2-carboxamidine trifluoroacetate]: 6 to 23 nM; for `CSc1sc(C(=N)N)cc1S(=O)(=O)c1cccc(-c2cnccc2C)c1` [Example 9, 4-[3-(4-Methyl-pyridin-3-yl)-benzenesulfonyl]-5-methylsulfanyl-thiophene-2-carboxamidine trifluoroacetate]: 6 to 23 nM; for `CSc1sc(C(=N)N)cc1S(=O)(=O)c1cccc(-c2cccnc2Cl)c1` [Example 10, 4-[3-(2-Chloro-pyridin-3-yl)-benzenesulfonyl]-5-methylsulfanyl-thiophene-2-carboxamidine; bis-trifluoroacetate]: 6 to 23 nM.
The same measure for `CSc1sc(C(=N)N)cc1S(=O)(=O)c1cccc(-c2ncccc2C)c1` [Example 11, 4-[3-(3-Methyl-pyridin-2-yl)-benzenesulfonyl]-5-methylsulfanyl-thiophene-2-carboxamidine bis-trifluoroacetate]: 6 to 23 nM and 23 nM; for `C=CCOc1cc(Br)cc(S(=O)(=O)c2cc(C(=N)N)sc2SC)c1` [Example 12, 4-(3-Allyloxy-5-bromo-benzenesulfonyl)-5-methylsulfanyl-thiophene-2-carboxamidine hydrochloride]: 6 to 23 nM; for `COc1cc(Br)cc(S(=O)(=O)c2cc(C(=N)N)sc2SC)c1` [Example 13, 4-(3-Bromo-5-methoxy-benzenesulfonyl)-5-methylsulfanyl-thiophene-2-carboxamidine hydrochloride]: 6 to 23 nM.
In the case of `COc1cc(-c2ccccc2)cc(S(=O)(=O)c2cc(C(=N)N)sc2SC)c1` [Example 15, 4-(5-Methoxy-biphenyl-3-sulfonyl)-5-methylsulfanyl-thiophene-2-carboxamidine hydrochloride], the Ki was 6 to 23 nM.
The same measure for `C=CCOc1cc(-c2ccccc2)cc(S(=O)(=O)c2cc(C(=N)N)sc2SC)c1` [Example 16, 4-(5-Allyloxy-biphenyl-3-sulfonyl)-5-methylsulfanyl-thiophene-2-carboxamidine]: 6 to 23 nM; for `CSc1sc(C(=N)N)cc1S(=O)(=O)c1cc(OCc2ccccc2)cc(-c2ccccc2)c1` [Example 17, 4-(5-Benzyloxy-biphenyl-3-sulfonyl)-5-methylsulfanyl-thiophene-2-carboxamidine hydrochloride]: 6 to 23 nM.
The same measure for `CSc1sc(C(=N)N)cc1S(=O)(=O)c1cc(O)cc(-c2ccccc2Cl)c1` [Example 18, 4-(2′-Chloro-5-hydroxy-biphenyl-3-sulfonyl)-5-methylsulfanyl-thiophene-2-carboxamidine trifluoroacetate]: 6 to 23 nM; for `COc1cc(-c2ccccc2Cl)cc(S(=O)(=O)c2cc(C(=N)N)sc2SC)c1` [Example 19, 4-(2′-Chloro-5-methoxy-biphenyl-3-sulfonyl)-5-methylsulfanyl-thiophene-2-carboxamidine trifluoroacetate]: 6 to 23 nM.
The result for `N=C(N)c1cc(S(=O)(=O)c2cccc(-c3cccc(C=O)c3)c2)c(Br)s1` [Example 20, 5-Bromo-4-(3′-formyl-biphenyl-3-sulfonyl)-thiophene-2-carboxamidine trifluoroacetate] reads 6 to 23 nM; that for `Cc1ccccc1-c1cccc(S(=O)(=O)c2cc(C(=N)N)sc2Br)c1` [Example 24, 5-Bromo-4-(2′-methyl-biphenyl-3-sulfonyl)-thiophene-2-carboxamidine trifluoroacetate], 6 to 23 nM.
`CSc1sc(C(=N)N)cc1S(=O)(=O)c1cccc(-c2c(C)cccc2N)c1` [Example 25, 4-(2′-Amino-6′-methyl-biphenyl-3-sulfonyl)-5-methylsulfanyl-thiophene-2-carboxamidine trifluoroacetate] had a Ki of 6 to 23 nM.
The molecule `CSc1sc(C(=N)N)cc1S(=O)(=O)c1cccc(-c2ccc(O)c(C=O)c2)c1` [Example 26, 4-(3′-Formyl-4′-hydroxy-biphenyl-3-sulfonyl)-5-methylsulfanyl-thiophene-2-carboxamidine trifluoroacetate] returned a Ki of 6 to 23 nM.
The same measure for `CSc1sc(C(=N)N)cc1S(=O)(=O)c1cccc(-c2cccc(C(O)C(F)(F)F)c2)c1` (centres unmarked) [Example 28, 5-Methylsulfanyl-4-[3′-(2,2,2-trifluoro-1-hydroxy-ethyl)-biphenyl-3-sulfonyl]-thiophene-2-carboxamidine trifluoroacetate]: 6 to 23 nM; for `CSc1sc(C(=N)N)cc1S(=O)(=O)c1cccc(-c2cccc(C(=O)C(F)(F)F)c2)c1` [Example 29, 5-Methylsulfanyl-4-[3′-(2,2,2-trifluoro-acetyl)-biphenyl-3-sulfonyl]-thiophene-2-carboxamidine trifluoroacetate]: 6 to 23 nM.
The result for `CSc1sc(C(=N)N)cc1S(=O)(=O)c1cccc(-c2cc3[nH]cnc3cc2C)c1` [Example 30, 4-[3-(6-Methyl-3H-benzoimidazol-5-yl)-benzenesulfonyl]-5-methylsulfanyl-thiophene-2-carboxamidine bis-trifluoroacetate] reads 6 to 23 nM.
The result for `CSc1sc(C(=N)N)cc1S(=O)(=O)c1cccc(-c2ccccc2C(C)O)c1` (centres unmarked) [Example 32, 4-[2′-(1-Hydroxy-ethyl)-biphenyl-3-sulfonyl]-5-methylsulfanyl-thiophene-2-carboxamidine trifluoroacetate] reads 6 to 23 nM; that for `CSc1sc(C(=N)N)cc1S(=O)(=O)c1cccc(-c2ccc(C(C)O)cc2)c1` (centres unmarked) [Example 33, 4-[4′-(1-Hydroxy-ethyl)-biphenyl-3-sulfonyl]-5-methylsulfanyl-thiophene-2-carboxamidine Trifluoroacetate], 6 to 23 nM.
The molecule `CSc1sc(C(=N)N)cc1S(=O)(=O)c1cccc(-c2ccccc2O)c1` [Example 34, 4-(2′-Hydroxy-biphenyl-3-sulfonyl)-5-methylsulfanyl-thiophene-2-carboxamidine trifluoroacetate] showed a Ki of 6 to 23 nM.
The same measure for `CSc1sc(C(=N)N)cc1S(=O)(=O)c1cccc(-c2cccc(O)c2)c1` [Example 35, 4-(3′-Hydroxy-biphenyl-3-sulfonyl)-5-methylsulfanyl-thiophene-2-carboxamidine trifluoroacetate]: 6 to 23 nM.
